Assay results published in US20220026427A1, “CELL BASED ASSAYS AND KITS FOR ASSESSING SERUM CHOLINERGIC RECEPTOR ACTIVITY” (Centre for Addiction and Mental Health, priority 2017, published 2022).
Where a name gives a salt, the structure may show the parent alone.

What was measured:
[1] = molecular target: T1, human or rat M1 muscarinic receptors (Rattus norvegicus, UniProt P08482); experiment: Ca2+ mobilization (FluoForte) protocol in CHO cells expressing M1 receptors, pre- and post-carbachol phases; type: cell-based
T1 construct: host or cells: CHO cells (M1WT3), whole cells
T1 sequence (P08482 1-460): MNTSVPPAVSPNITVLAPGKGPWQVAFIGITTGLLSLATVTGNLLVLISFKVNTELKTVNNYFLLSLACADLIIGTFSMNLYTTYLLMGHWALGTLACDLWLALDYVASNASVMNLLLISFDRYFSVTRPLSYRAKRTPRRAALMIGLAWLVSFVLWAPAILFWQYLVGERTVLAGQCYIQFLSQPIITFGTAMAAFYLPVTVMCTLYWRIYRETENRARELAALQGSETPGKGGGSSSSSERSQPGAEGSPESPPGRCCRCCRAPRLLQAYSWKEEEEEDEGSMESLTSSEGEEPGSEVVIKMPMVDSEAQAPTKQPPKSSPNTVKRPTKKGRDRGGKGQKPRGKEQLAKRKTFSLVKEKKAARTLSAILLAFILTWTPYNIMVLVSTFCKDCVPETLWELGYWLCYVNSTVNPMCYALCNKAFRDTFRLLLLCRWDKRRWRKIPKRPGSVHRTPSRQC

[2] = test system: cognitively intact healthy participants; conditions: in vivo, iv
Description: Cambridge Neuropsychological Test Automated Battery (CANTAB-AD):
Two main challenges are often encountered with many of the newer neurocognitive tasks. First is the lack of standardization in administering such tasks. Second is the lack of information on their psychometric properties. The Cambridge Neuropsychological Test Automated Battery (CANTAB) system addresses both of these challenges (www.cambridgecognition.com). The design of the CANTAB is based on well-established neurocognitive experimental paradigms. It was designed initially to provide componential analysis of cognitive functions in the elderly and individuals with dementia. The CANTAB Eclipse consists of 22 tasks that assess neurocognitive processes within a wide range of relatively independent cognitive domains, including visual memory, attention, working memory and problem solving. Each of the tasks is graded, allowing the assessment of patients with varying level of impairment. Increasing the difficulty of a task avoids a ceiling effect. Conversely, decreasing the difficulty of a task avoids a floor effect and allows the distinction between specific and generalized deficits (a concern discussed above). The tasks are automated and therefore testing is given in a standardized manner with a standardized feedback about accuracy and speed. […] Estimates of test-retest reliability and of practice effects are available for many of the CANTAB tasks based on an elderly sample with an age range of 60-80 years. The CANTAB has been used in a variety of clinical populations providing an opportunity to compare findings related to different disorders, including findings examining cognition in late-life bipolar disorder. Finally, the CANTAB tasks are independent of language and culture and can be used in population for whom English is not a primary language^46.
Participants attended the Centre for Addiction and Mental Health on two separate occasions:
Visit 2: Upon arrival at CAMH, participants were administered the CANTAB. An IV line was then set up by a research nurse and the first blood sample was taken. […] The CANTAB was completed once more. […] The qualified investigator or designate was available for the entirety of the study visit.

Which “effect of the antagonist alone on Ca2+ mobilization” value [1] does the source give for CN1[C@@H]2CC[C@H]1C[C@@H](OC(=O)C(CO)c1ccccc1)C2 (stereo partly shown) [Atropine, atropine] here?
Its value is “no effect on their own”.

And the “effect on the agonist response (serum peak)” value [1]?
Its value is “completely blocked this agonist response”.

With Clc1ccc2c(c1)N=C(N1CCNCC1)c1ccccc1N2 [NDMC, N-desmethylclozapine] as the molecule, how does the “effect on Ca2+ mobilization in the pre-carbachol phase” value [1] read?
The value was “stronger effects than CLZ”.

What about the “effect on the carbachol response (post-carbachol phase)” value [1] of the same molecule?
The value was “virtually eliminated the carbachol response”.

Which results are given for CN1[C@@H]2C[C@@H](OC(=O)[C@H](CO)c3ccccc3)C[C@H]1[C@@H]1O[C@@H]12 [scopolamine, Scopolamine Hydrobromide]?
blc_pc difference score (Big/little circle, Percent correct) [2]: −0.8; dms_pc difference score (Delayed matching to sample, Percent correct (all delays)) [2]: −19.3; dms_pcs difference score (Delayed matching to sample, Percent correct (simultaneous)) [2]: 4.4; dms_pege difference score (Delayed matching to sample, Prob error given error) [2]: 0.1; pal_tea6 difference score (Paired associated learning, Total errors (6 shapes, adjusted)) [2]: 9.0; pal_tea difference score (Paired associated learning, Total errors (adjusted)) [2]: 19.1; rvp_a difference score (Rapid image visual processing, A′) [2]: −0.1; soc_mitt5 difference score (Stocking of Cambridge, Mean initial thinking time (5 moves)) [2]: −3055.0; soc_mstt5 difference score (Stocking of Cambridge, Mean subsequent thinking time (5 moves)) [2]: 5139.3; soc_psimm difference score (Stocking of Cambridge, Problems solved in minimum moves) [2]: −1.7; swm_be difference score (Spatial working memory, Between errors) [2]: 20.2; swm_strat difference score (Spatial working memory, Strategy) [2]: 3.1
